Assays:
[1] = test system: mouse collagen-induced arthritis model; test: Swelling suppression test using mouse collagen-induced arthritis model; type: in vivo; details: dose of 100 mg/kg, repeated oral administration, male DBA/1J mice
Experimental: A mouse collagen-induced arthritis model test was carried out by modifying the method of Mihara et al. (British Journal of Pharmacology, 154, 153 (2008)).
Male DBA/1J mice (supplied by Japan SLC, Inc.) were used as laboratory animals. An adjuvant prepared from a type II collagen solution (Collagen Research Center) and Adjuvant Complete Freund (manufactured by Difco Laboratories Ltd.) was intracutaneously administered twice to the bases of the tails of the mice under inhalation anesthesia with isoflurane (manufactured by Wako Pure Chemical Industries, Ltd.) for sensitization to prepare arthritis models.
Also, Adjuvant Complete Freund (manufactured by Difco Laboratories Ltd.) not containing type II collagen was administered by a similar method to obtain a control group. […]
During the test period, the swelling scoring of limbs (score 0: no disease, score 1: swelling and redness or weak swelling in the small joint of only one of the toes and the fingers, score 2: moderate swelling in the small joints of two or more of the toes and the fingers, score 3: strong swelling in the ankle or the forefoot wrist, score 4: overall strong swelling) was carried out to evaluate the drug efficacy of the test compound. When the total score of the solvent-administered group on the final day was defined as 100%, the rate of reduction in score (%) at each dose of the test compound was calculated.

[2] = test system: human large intestine cancer cell line HCT-116; test: In vitro cell growth inhibitory activity against human large intestine cancer line by combined use with chemotherapeutic; type: cell-based; details: HCT-116, 3 days, IV-361 10 nM
Experimental: A human large intestine cancer cell line HCT-116 (obtained from DS Pharma Biomedical Co., Ltd.) was cultured in a McCoy's 5A medium (manufactured by Thermo Fisher Scientific, Inc.) containing 10% fetal bovine serum (FBS) (manufactured by Thermo Fisher Scientific, Inc.) and 1% penicillin/streptomycin/amphotericin B (manufactured by Thermo Fisher Scientific, Inc.) and inoculated at 0.5 to 2.0×10^3 cells/well to a 96-well plate. The cells were cultured overnight in a carbon dioxide incubator of 37° C. containing 5% carbon dioxide. The medium was replaced with a fresh medium on the next day, and then, a mixed solution of a DMSO solution of a test compound (IV-361, 5-FU or SN-38) with varying concentrations and a cell culture medium (final DMSO concentration: 0.2%) was added thereto. The concentration of the test compound was 10 nM, the concentration of 5-FU (manufactured by Wako Pure Chemical Industries, Ltd.) was 1000 nM, and the concentration of SN-38 (manufactured by Tocris Bioscience) was adjusted to 1 nM to carry out the test. For a control group, a mixed solution of DMSO and a cell culture medium (final DMSO concentration: 0.2%) was used instead of the DMSO solution of the test compound.
After the addition of the DMSO solution of the test compound, the cells were cultured for 3 days in a carbon dioxide incubator. Then, the absorbance (measurement wavelength: 565 nm) of the medium in each group was measured by using In Vitro Toxicology Assay Kit Sulforhodamine B based (manufactured by Sigma-Aldrich Co. LLC.).
The rate of inhibition of growth (%) was calculated according to the expression given below. Specifically, in the case where the difference between the average absorbance before culture (day 0) and the average absorbance after culture in the test compound-administered group is the same as the difference between the average absorbance before culture (day 0) and the average absorbance after culture in the control group, the rate of inhibition of cell growth is 0%. Rate of inhibition of growth=(1−((Average absorbance of the test compound-administered group after culture)−(Average absorbance of the test compound-administered group on day 0))/((Average absorbance of the control group after culture)−(Average absorbance of the control group on day 0)))×100

Structure (SMILES): Cc1ccc(F)cc1NC(=O)N1Cc2c(NC(=O)C3([Si](C)(C)C)CCC3)n[nH]c2C1(C)C [IV-361, N-(5-Fluoro-2-methylphenyl)-6,6-dimethyl-3-[1-(trimethylsilyl)cyclobutanecarboxamido]-4,6-dihydropyrrolo[3,4-c]pyrazole-5 (1H)-carboxamide]
- rate of inhibition (reduction in swelling score) [1]: ≥ 50%
- inhibition at 0.01 µM ([2]; Homo sapiens, 72 h, single-agent treatment, read-out: Rate of inhibition of growth (%)): 11%
- cancer cell growth inhibitory effect in combined use with chemotherapeutic (5-FU or SN-38) ([2]; 5-FU 1000 nM, SN-38 1 nM): synergistic cancer cell growth inhibitory effect

— US10894798B2, “Substituted dihydropyrrolopyrazole derivative” (UBE INDUSTRIES, LTD., priority 2015, dated 2021)
